# The source made the active and inactive calls. The calls are words filed in the database; no cut-off is given here.
# Legend:
# [1] = Toxicity in cyclophosphamide-induced Sprague-Dawley rat model of partial androgen deficiency assessed as decrease in body weight at 50 to 100 mg/kg, po qd administered for 4 weeks and measured every 3 days; format: organism-based; conditions: in vivo
# Rattus norvegicus [2] = assay: Anti late-onset hypogonadism activity in cyclophosphamide-induced Sprague-Dawley rat model of partial androgen deficiency assessed as weight of testis at 100 mg/kg, po qd administered for 4 weeks (reference value: 1.47 +/- 0.13 g); format: functional
# Rattus norvegicus [3] = assay: Anti late-onset hypogonadism activity in cyclophosphamide-induced Sprague-Dawley rat model of partial androgen deficiency assessed as weight of testis at 50 mg/kg, po qd administered for 4 weeks (reference value: 1.47 +/- 0.13 g); format: functional
# TM3 [4] = assay: Induction of autophagy in mouse TM3 cells assessed as increase in ATG5 protein level at 10 to 100 uM by Western blot analysis; format: functional, cell-based
# [5] = AUC (0 to t) in Sprague-Dawley rat plasma at 50 mg/kg, po up to 12 hrs by LC/MS analysis; format: ADME, organism-based; set-up: dose 50 mg/kg, time < 12 hr, route oral
# TM3 [6] = assay: Induction of testosterone production in mouse TM3 cells assessed as increase in testosterone level at 20 uM measured after 24 hrs by ELISA relative to control; format: functional
# [7] = Cytotoxicity against human NCM460 cells assessed as reduction in cell viability measured after 24 hrs by sulforhodamine B assay; format: cell-based
# [8] = Cytotoxicity against human HAF cells assessed as reduction in cell viability measured after 24 hrs by sulforhodamine B assay; format: cell-based
# [9] = Cytotoxicity against human L02 cells assessed as reduction in cell viability measured after 24 hrs by sulforhodamine B assay; format: cell-based
# TM3 [10] = assay: Induction of testosterone production in mouse TM3 cells assessed as increase in 3beta-HSD mRNA expression level after 24 hrs by qRT-PCR analysis; format: functional, cell-based
# [11] = Toxicity in cyclophosphamide - induced Sprague-Dawley rat model of partial androgen deficiency assessed as effect on lung at 50 to 100 mg/kg by HE staining based histopathological analysis; format: organism-based; conditions: in vivo
# [12] = Toxicity in cyclophosphamide - induced Sprague-Dawley rat model of partial androgen deficiency assessed as effect on kidney at 50 to 100 mg/kg by HE staining based histopathological analysis; format: organism-based; conditions: in vivo
# [13] = Toxicity in cyclophosphamide - induced Sprague-Dawley rat model of partial androgen deficiency assessed as swelling of seminiferous tubules at 50 to 100 mg/kg by HE staining based histopathological analysis; format: organism-based; conditions: in vivo
# [14] = Toxicity in cyclophosphamide - induced Sprague-Dawley rat model of partial androgen deficiency assessed as sperm viability at 100 mg/kg by semen analysis (reference value: 95.1 +/- 3.2 %); format: organism-based; conditions: in vivo
# [15] = Initial plasma concentration in Sprague-Dawley rat plasma at 5 mg/kg, iv by LC/MS analysis; format: ADME, organism-based
# [16] = Half-life in Sprague-Dawley rat plasma at 5 mg/kg, iv up to 5 hrs by LC/MS analysis; format: ADME, organism-based
# [17] = Clearance in Sprague-Dawley rat at 5 mg/kg, iv up to 5 hrs by LC/MS analysis; format: ADME, organism-based; conditions: in vivo
# [18] = Mean residence time in Sprague-Dawley rat at 5 mg/kg, iv by LC/MS analysis; format: ADME, organism-based; conditions: in vivo
# TM3 [19] = assay: Induction of autophagy in mouse TM3 cells assessed as increase in LC3 protein level at 10 to 100 uM after 24 hrs by DAPI staining based confocal microscopic method; format: functional, cell-based
# TM3 [20] = assay: Induction of testosterone production in mouse TM3 cells assessed as increase in StAR protein expression level after 24 hrs by Western blot analysis; format: functional, cell-based
# TM3 [21] = assay: Induction of testosterone production in mouse TM3 cells assessed as increase in 3beta-HSD protein expression level after 24 hrs by Western blot analysis; format: functional, cell-based
smiles,measurement,setting,value
CNC(=O)c1cc2c(cc1OC)[C@@]1(C)Cc3cnc(C)nc3C(C)(C)C1CC2 (mixture of isomers),Activity,[1],Non-Toxic
same,Activity,Rattus norvegicus [2],1.66 g
same,Activity,Rattus norvegicus [3],1.54 g
same,Activity,TM3 [4],Active
same,AUC(0-t) at 12 h,[5],3.05 µg·h/mL
same,Activity,TM3 [6],174.6%
same,CC50 at 24 h,[7],> 200 µM
same,CC50 at 24 h,[8],> 200 µM
same,CC50 at 24 h,[9],> 200 µM
same,Activity,TM3 [10],Dose-dependent effect
same,Activity,[11],Non-Toxic
same,Activity,[12],Non-Toxic
same,Activity,[13],Toxic
same,Activity,[14],98%
same,C0,[15],0.279 µg/mL
same,half-life,[16],7.59 h
same,clearance,[17],9.3 L/h/kg
same,MRT,[18],9.92 h
same,Activity,TM3 [19],Active
same,Activity,TM3 [20],Dose-dependent effect
same,Activity,TM3 [21],Dose-dependent effect

# Reference: ChEMBL document CHEMBL4350974, “Synthesis and biological evaluation of methylpyrimidine-fused tricyclic diterpene analogs as novel oral anti-late-onset hypogonadism agents” (Eur J Med Chem, 2019)
